From patent publication US20250205344A1, “2,4-DIOXOTETRAHYDROPYRIMIDINYL DERATIVES AS DEGRONS IN PROTACS” (GLAXOSMITHKLINE INTELLECTUAL PROPERTY DEVELOPMENT LIMITED, priority 2022, published 2025) come the findings set out here.

Counter-ions that a name gives are not always drawn.

T1 sequence (P10275 whole entry T878A): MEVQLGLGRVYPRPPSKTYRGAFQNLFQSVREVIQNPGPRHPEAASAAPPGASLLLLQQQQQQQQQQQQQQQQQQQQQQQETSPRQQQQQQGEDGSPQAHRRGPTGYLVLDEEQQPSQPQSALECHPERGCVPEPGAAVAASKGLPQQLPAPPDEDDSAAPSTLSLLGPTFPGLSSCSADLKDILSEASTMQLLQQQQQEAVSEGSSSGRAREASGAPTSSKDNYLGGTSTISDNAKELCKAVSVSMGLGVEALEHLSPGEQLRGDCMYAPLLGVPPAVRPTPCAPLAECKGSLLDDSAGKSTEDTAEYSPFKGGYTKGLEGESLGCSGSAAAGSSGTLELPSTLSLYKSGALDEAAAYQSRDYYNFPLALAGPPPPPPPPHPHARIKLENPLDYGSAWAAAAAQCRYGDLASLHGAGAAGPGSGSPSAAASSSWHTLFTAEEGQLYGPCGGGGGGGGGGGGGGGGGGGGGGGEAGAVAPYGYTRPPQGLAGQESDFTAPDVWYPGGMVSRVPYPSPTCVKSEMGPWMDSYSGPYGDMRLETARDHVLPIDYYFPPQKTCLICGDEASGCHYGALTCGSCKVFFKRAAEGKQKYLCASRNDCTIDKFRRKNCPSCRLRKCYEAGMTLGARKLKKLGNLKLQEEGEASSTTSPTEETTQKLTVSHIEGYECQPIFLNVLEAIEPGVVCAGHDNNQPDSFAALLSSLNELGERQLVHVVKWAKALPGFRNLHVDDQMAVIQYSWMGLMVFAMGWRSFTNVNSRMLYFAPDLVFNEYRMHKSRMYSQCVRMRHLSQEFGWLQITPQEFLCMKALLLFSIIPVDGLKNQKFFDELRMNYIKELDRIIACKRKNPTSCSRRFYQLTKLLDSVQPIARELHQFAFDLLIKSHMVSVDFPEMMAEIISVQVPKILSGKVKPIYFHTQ
T1 sequence (Q96SW2 whole entry partner): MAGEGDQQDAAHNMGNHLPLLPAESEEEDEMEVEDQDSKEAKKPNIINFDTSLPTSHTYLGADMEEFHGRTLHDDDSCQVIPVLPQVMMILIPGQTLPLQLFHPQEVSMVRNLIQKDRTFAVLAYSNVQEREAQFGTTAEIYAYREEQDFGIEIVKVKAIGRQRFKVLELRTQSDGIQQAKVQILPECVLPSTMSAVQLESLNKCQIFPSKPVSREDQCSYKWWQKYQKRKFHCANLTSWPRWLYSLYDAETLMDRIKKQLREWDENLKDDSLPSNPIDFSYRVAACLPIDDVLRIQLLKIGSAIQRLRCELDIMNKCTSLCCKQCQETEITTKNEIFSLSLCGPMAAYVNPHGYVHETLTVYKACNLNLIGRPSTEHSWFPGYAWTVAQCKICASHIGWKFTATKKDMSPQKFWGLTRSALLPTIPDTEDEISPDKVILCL
T1 sequence (Q16531 whole entry partner): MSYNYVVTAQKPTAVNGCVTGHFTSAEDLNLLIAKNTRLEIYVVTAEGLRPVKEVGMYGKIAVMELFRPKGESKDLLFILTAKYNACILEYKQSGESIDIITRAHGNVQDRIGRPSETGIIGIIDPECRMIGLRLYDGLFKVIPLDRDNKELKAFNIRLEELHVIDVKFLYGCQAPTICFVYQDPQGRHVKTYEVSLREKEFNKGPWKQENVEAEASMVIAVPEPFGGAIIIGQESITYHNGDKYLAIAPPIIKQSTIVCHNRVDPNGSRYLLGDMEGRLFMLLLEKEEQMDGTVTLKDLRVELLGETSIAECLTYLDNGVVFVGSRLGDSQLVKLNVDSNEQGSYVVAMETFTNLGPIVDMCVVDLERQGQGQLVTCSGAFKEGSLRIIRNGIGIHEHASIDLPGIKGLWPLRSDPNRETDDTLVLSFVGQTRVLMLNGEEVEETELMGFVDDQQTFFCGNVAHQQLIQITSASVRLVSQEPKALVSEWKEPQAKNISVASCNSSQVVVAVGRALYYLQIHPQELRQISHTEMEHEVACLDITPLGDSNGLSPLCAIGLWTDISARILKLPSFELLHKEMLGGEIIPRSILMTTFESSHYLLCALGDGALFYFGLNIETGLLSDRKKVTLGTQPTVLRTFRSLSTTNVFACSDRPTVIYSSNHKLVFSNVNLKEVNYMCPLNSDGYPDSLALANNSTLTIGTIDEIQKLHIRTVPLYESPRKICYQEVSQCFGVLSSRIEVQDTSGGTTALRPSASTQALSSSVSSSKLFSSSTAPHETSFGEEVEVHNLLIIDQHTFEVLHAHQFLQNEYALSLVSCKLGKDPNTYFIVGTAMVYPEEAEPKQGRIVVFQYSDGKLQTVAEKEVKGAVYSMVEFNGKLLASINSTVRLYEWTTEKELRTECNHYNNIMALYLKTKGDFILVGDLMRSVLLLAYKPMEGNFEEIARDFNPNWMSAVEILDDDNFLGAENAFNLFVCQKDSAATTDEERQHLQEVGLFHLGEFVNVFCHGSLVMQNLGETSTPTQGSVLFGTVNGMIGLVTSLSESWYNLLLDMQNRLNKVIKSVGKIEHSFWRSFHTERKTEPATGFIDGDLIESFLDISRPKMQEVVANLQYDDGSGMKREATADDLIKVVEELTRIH

The assay concerns the target T1, Androgen Receptor (Homo sapiens, UniProt P10275, T878A).
T1 construct: the AR gene was modified, using CRISPR/Cas9 editing, so the expressed AR protein included an 11 amino acid HiBiT tag; endogenous in cells; host or cells: clonal LnCaP-derived line, AR gene edited by CRISPR/Cas9
Nature of the assay: Androgen Receptor Degradation Assay (Nano-Glo HiBiT). In kind it is cell-based. The conditions noted are these: LNCaP, 18 h, HiBiT-tagged AR in human LnCaP cells, read-out: mean asymptote max. The procedure: Degradation of Androgen Receptor protein in human LnCaP cells treated with PROTACs was quantified using the Nano-Glo® HiBiT Lytic Detection System (Promega) in 384 well assay plate format. A clonal LnCaP derived cell line was first established in which the AR gene was modified, using CRISPR/Cas9 editing, so the expressed AR protein included an 11 amino acid HiBiT tag at its amino-terminus. 10 mM DMSO stock solutions of PROTACs were prepared and diluted across an 11 concentration, 3 fold increment range, and 25 nL dispensed into a white opaque bottomed 384 well assay plate (Thermofisher) using an acoustic ECHO dispenser (Labcyte). […] For the assay, cells were detached from flask and resuspended with assay medium (FluoroBrite™ DMEM supplemented with 10% heat inactivated FBS, penicillin 50 U/mL and streptomycin 50 ug/mL (Thermofisher)). The cell suspension was centrifuged at 400 g for 5 min and the pellet resuspended in assay medium. 25 μL of cell suspension containing 10,000 cells was dispensed into each well of the assay plate containing the test compounds, which was then incubated for 18 h at 37° C./5% CO2. Control wells were included on each assay plate, with assay medium without cells being the no AR remaining 100% effect control, and cells treated with DMSO vehicle only, without PROTAC, the 0% effect control. 25 μL of Nano-Glo® HiBiT lysis buffer supplemented with LgBiT protein and Nano-Glo® substrate (Promega) was added to each well and the plate shaken at 500 rpm for 10 min at room temperature. The intensity of luminescence was measured using a PHERAstar microplate reader (BMG Labtech) and the % AR protein remaining in each well calculated by normalising the raw luminescence value to the above control wells. Parameters corresponding to the potency and efficacy estimates of the PROTACs were obtained from these normalised luminescence values using software (IDBS ActivityBase). These included the DC50 and the Dmax estimates. Two versions of the DC50, called relative DC50 and absolute DC50, were typically generated. These are the inflection point of a fitted 4 parameter sigmoidal response curve and the interpolated concentration of PROTAC corresponding to 50% of the protein being degraded, respectively. The Dmax parameter was the maximum experimentally observed degradation and the asymptote max parameter the fitted response curve asymptote maximum.
In general terms: The HiBiT peptide binds its large partner to form an active luciferase.
Take `CC1(C)C(=O)N(c2ccc(C#N)c(C(F)(F)F)c2)C(=S)N1c1ccc(N2CCC(CN3CCC(n4ncc5c(N6CCC(=O)NC6=O)cncc54)CC3)CC2)cc1` [EAR98, 4-(3-(4-(4-((4-(4-(2,4-Dioxotetrahydropyrimidin-1(2H)-yl)-1H-pyrazolo[3,4-c]pyridin-1-yl)piperidin-1-yl)methyl)piperidin-1-yl)phenyl)-4,4-dimethyl-5-oxo-2-thioxoimidazolidin-1-yl)-2-(trifluoromethyl)benzonitrile]: the Dmax is at least 50%.
As to `C[C@@H]1CN(c2ccc(C#N)c(Cl)c2)[C@@H](C)CN1C(=O)Nc1ccc(N2CCC(CN3CCC(n4ccc5c(N6CCC(=O)NC6=O)cccc54)CC3)CC2)nc1` [EAR108, (2R,5S)-4-(3-Chloro-4-cyanophenyl)-N-(6-(4-((4-(4-(2,4-dioxotetrahydropyrimidin-1(2H)-yl)-1H-indol-1-yl)piperidin-1-yl)methyl)piperidin-1-yl)pyridin-3-yl)-2,5-dimethylpiperazine-1-carboxamide], the Dmax is at least 50%.
Consider `N#Cc1ccc(O[C@H]2CC[C@H](NC(=O)c3ccc(N4CCC(CN5CCC(n6ccc7c(N8CCC(=O)NC8=O)cccc76)CC5)CC4)nc3)CC2)cc1C(F)(F)F` [AR12, N-((1r,4r)-4-(4-Cyano-3-(trifluoromethyl)phenoxy)cyclohexyl)-6-(4-((4-(4-(2,4-dioxotetrahydropyrimidin-1(2H)-yl)-1H-indol-1-yl)piperidin-1-yl)methyl)piperidin-1-yl)nicotinamide], for which the Dmax is at least 50%.
The result for `N#Cc1ccc(O[C@H]2CC[C@H](NC(=O)c3cnc(N4CCC(CN5CCC(n6ccc7c(N8CCC(=O)NC8=O)cncc76)CC5)CC4)cn3)CC2)cc1Cl` [AR16, N-((1r,4r)-4-(3-Chloro-4-cyanophenoxy)cyclohexyl)-5-(4-((4-(4-(2,4-dioxotetrahydropyrimidin-1(2H)-yl)-1H-pyrrolo[2,3-c]pyridin-1-yl)piperidin-1-yl)methyl)piperidin-1-yl)pyrazine-2-carboxamide] reads at least 50%; that for `N#Cc1ccc(O[C@H]2CC[C@H](NC(=O)c3ccc(C4CCN(C(=O)CN5CCC(n6ccc7c(N8CCC(=O)NC8=O)cccc76)CC5)CC4)cc3)CC2)cc1Cl` [AR1, N-((1r,4r)-4-(3-Chloro-4-cyanophenoxy)cyclohexyl)-4-(1-(2-(4-(4-(2,4-dioxotetrahydropyrimidin-1(2H)-yl)-1H-indol-1-yl)piperidin-1-yl)acetyl)piperidin-4-yl)benzamide], at least 50%.
Take `CC1CC(CN2CCC(n3ncc4c(N5CCC(=O)NC5=O)cccc43)CC2)CCN1c1ccc(C(=O)N[C@H]2CC[C@H](Oc3ccc(C#N)c(Cl)c3)CC2)nn1` (stereo partly drawn) [EAR229]: the Dmax was at least 50%.
For `CN(c1ccc(C#N)c(Cl)c1)[C@H]1CC[C@H](NC(=O)c2ccc(N3CCC(CN4CCC(n5ccc6c(N7CCC(=O)NC7=O)cccc65)CC4)CC3)nn2)CC1` [EAR157, N-((1r,4r)-4-((3-Chloro-4-cyanophenyl)(methyl)amino)cyclohexyl)-6-(4-((4-(4-(2,4-dioxotetrahydropyrimidin-1(2H)-yl)-1H-indol-1-yl)piperidin-1-yl)methyl)piperidin-1-yl)pyridazine-3-carboxamide], the Dmax is at least 50%.
With `N#Cc1ccc(O[C@H]2CC[C@H](NC(=O)c3ccc(N4CCC(CN5CCC(n6ncc7c(N8CCC(=O)NC8=O)nccc76)CC5)CC4)nn3)CC2)cc1Cl` [EAR51, N-((1r,4r)-4-(3-Chloro-4-cyanophenoxy)cyclohexyl)-6-(4-((4-(4-(2,4-dioxotetrahydropyrimidin-1(2H)-yl)-1H-pyrazolo[4,3-c]pyridin-1-yl)piperidin-1-yl)methyl)piperidin-1-yl)pyridazine-3-carboxamide], the Dmax is at least 50%.
As for `CC(C)n1ccc2c(N3CCC(=O)NC3=O)cc(C(=O)N3CCC4(CCN(Cc5ccc(C(=O)N[C@H]6CC[C@H](Oc7ccc(C#N)c(Cl)c7)CC6)cc5)CC4)CC3)cc21` [EAR84, N-((1r,4r)-4-(3-Chloro-4-cyanophenoxy)cyclohexyl)-4-((9-(4-(2,4-dioxotetrahydropyrimidin-1(2H)-yl)-1-isopropyl-1H-indole-6-carbonyl)-3,9-diazaspiro[5.5]undecan-3-yl)methyl)benzamide], the Dmax is at least 50%.
In the case of `N#Cc1ccc(O[C@H]2CC[C@H](NC(=O)c3cnc(N4CCC(CN5CCC(n6ccc7c(N8CCC(=O)NC8=O)cc(F)cc76)CC5)CC4)cn3)CC2)cc1Cl` [EAR202, N-((1r,4r)-4-(3-Chloro-4-cyanophenoxy)cyclohexyl)-5-(4-((4-(4-(2,4-dioxotetrahydropyrimidin-1(2H)-yl)-6-fluoro-1H-indol-1-yl)piperidin-1-yl)methyl)piperidin-1-yl)pyrazine-2-carboxamide hydrochloride], the Dmax is at least 50%.
The result for `N#Cc1ccc(O[C@H]2CC[C@H](NC(=O)c3ccc(N4CCC(CN5CCC(n6ccc7c(N8CCC(=O)NC8=O)cncc76)CC5)CC4)nc3)CC2)cc1C(F)(F)F` [AR19, N-((1r,4r)-4-(4-Cyano-3-(trifluoromethyl)phenoxy)cyclohexyl)-6-(4-((4-(4-(2,4-dioxotetrahydropyrimidin-1(2H)-yl)-1H-pyrrolo[2,3-c]pyridin-1-yl)piperidin-1-yl)methyl)piperidin-1-yl)nicotinamide] reads at least 50%; that for `N#Cc1ccc(O[C@H]2CC[C@H](NC(=O)c3ccc(N4CCC(CN5CCC(n6ccc7c(N8CCC(=O)NC8=O)cncc76)CC5)CC4)nc3)CC2)cc1Cl` [EAR50, N-((1r,4r)-4-(3-Chloro-4-cyanophenoxy)cyclohexyl)-6-(4-((4-(4-(2,4-dioxotetrahydropyrimidin-1(2H)-yl)-1H-pyrrolo[2,3-c]pyridin-1-yl)piperidin-1-yl)methyl)piperidin-1-yl)nicotinamide hydrochloride], at least 50%.
The value for `N#Cc1ccc(O[C@H]2CC[C@H](NC(=O)c3ccc(N4CCC(n5ccc6c(N7CCC(=O)NC7=O)cccc65)CC4)cc3)CC2)cc1Cl` [EAR54, N-((1r,4r)-4-(3-Chloro-4-cyanophenoxy)cyclohexyl)-4-(4-(4-(2,4-dioxotetrahydropyrimidin-1(2H)-yl)-1H-indol-1-yl)piperidin-1-yl)benzamide] was at least 50%; that for `N#Cc1ccc(O[C@H]2CC[C@H](NC(=O)c3ccc(N4CCC(CN5CCC(n6ccc7c(N8CCC(=O)NC8=O)nccc76)CC5)CC4)cc3)CC2)cc1Cl` [EAR197, N-((1r,4r)-4-(3-Chloro-4-cyanophenoxy)cyclohexyl)-4-(4-((4-(4-(2,4-dioxotetrahydropyrimidin-1(2H)-yl)-1H-pyrrolo[3,2-c]pyridin-1-yl)piperidin-1-yl)methyl)piperidin-1-yl)benzamide] was at least 50%.
The value for `N#Cc1ccc(O[C@H]2CC[C@H](NC(=O)c3ccc(N4CCC[C@@H](CN5CCC(n6ncc7c(N8CCC(=O)NC8=O)cccc76)CC5)C4)nn3)CC2)cc1Cl` (single isomer, unassigned) [EAR137] was at least 50%; that for `N#Cc1ccc(O[C@H]2CC[C@H](NC(=O)c3ccc(N4CC[C@H](CN5CCC(n6ncc7c(N8CCC(=O)NC8=O)cccc76)CC5)C4)nn3)CC2)cc1Cl` [EAR238, N-((1r,4R)-4-(3-chloro-4-cyanophenoxy)cyclohexyl)-6-((R)-3-((4-(4-(2,4-dioxotetrahydropyrimidin-1(2H)-yl)-1H-indazol-1-yl)piperidin-1-yl)methyl)pyrrolidin-1-yl)pyridazine-3-carboxamide] was at least 50%; that for `N#Cc1ccc(O[C@H]2CC[C@H](NC(=O)c3cnc(N4CCC(CN5CCC(n6ccc7c(N8CCC(=O)NC8=O)cccc76)CC5)CC4)cn3)CC2)cc1Cl` [EAR9, N-((1r,4r)-4-(3-Chloro-4-cyanophenoxy)cyclohexyl)-5-(4-((4-(4-(2,4-dioxotetrahydropyrimidin-1(2H)-yl)-1H-indol-1-yl)piperidin-1-yl)methyl)piperidin-1-yl)pyrazine-2-carboxamide] was at least 50%.
Regarding `CN(c1ccc(C#N)c(Cl)c1)[C@H]1CC[C@H](NC(=O)c2ccc(N3CCC(CN4CCC(n5ccc6c(N7CCC(=O)NC7=O)ncnc65)CC4)CC3)nn2)CC1` [EAR214, N-((1r,4r)-4-((3-Chloro-4-cyanophenyl)(methyl)amino)cyclohexyl)-6-(4-((4-(4-(2,4-dioxotetrahydropyrimidin-1(2H)-yl)-7H-pyrrolo[2,3-d]pyrimidin-7-yl)piperidin-1-yl)methyl)piperidin-1-yl)pyridazine-3-carboxamide hydrochloride], the Dmax was at least 50%.
